Reference: patent publication US8278358B2, “Lipoic acid derivatives” (Omnica GmbH, priority 2006, dated 2012)

How the values were obtained:
[1] = Inhibition of the autooxidation of linoleic acid; format: biochemical; conditions: 50° C., up to 72 hours
Procedure: As a positive control (full inhibition) 10 mM butyl-hydroxytoluene (BHT)/L was introduced. Each sample was prepared in 3 replicates. […] Each sample was prepared in 3 replicates. Samples were incubated with light protection at 50° C.

CaCo-2 cells = test: CACO-2 absorption test (Free and Total LA/DHLA in cells); format: in vitro ADME
[2] = Reducing power assay (reduction of Iron-III to Iron-II); format: biochemical
Procedure: The assay is based on the reduction of Iron-III to Iron-II. Results are expressed as % reduction when compared to the control which reduced all Iron-III at a concentration of 5 mg/mL.

[3] = Protection of lutein esters, milling/mixing method, 60° C. for 4 hours; format: physicochemical; conditions: mix method
Procedure: 300 mg lutein esters and 30 mg α-Tocopherol were added to a mortar, completely milled and maintained at a temperature of 60° C. for 4 hours. The lutein content was measured with the UV-Visible spectrophotometric method as described above. […] The lutein content was measured with a UV-Visible spectrophotometer as described above. 300 mg lutein esters and a predetermined amount of lipoic acid were placed in a mortar, milled and then subjected to an elevated temperature of 60° C. for 4 hours. The lutein content was determined by the UV-Visible spectrophotometric method described above.

[4] = Stability in CaCo-2 incubation medium (Free and Total LA/DHLA in medium); format: in vitro ADME; conditions: for Total LA in medium (after NaBH4 reduction) / Free LA in medium: 1 mg LA/ml or 1.46 mg LAORN/ml medium
Procedure: For stability investigations, the incubation medium was incubated at 37° C. for 1 hour. Thereafter, the medium was centrifuged and used for further analysis.

SMILES	protection against autooxidation of linoleic acid ([1]; FIG. 7: 5 mM LA/L, 5 mM ORN/L, 5 mM LA/L + 5 mM ORN/L, 10 mM LAORN/L)	protection against autooxidation of linoleic acid ([1]; FIG. 8: 50 mM LA/L, 50 mM ORN/L, 50 mM LA/L + 50 mM ORN/L, 100 mM LAORN/L)	Total LA in cells (after NaBH4 reduction) (CaCo-2 cells; CaCo-2 cells incubated 30 min)	Total LA in cells (after NaBH4 reduction) (CaCo-2 cells; CaCo-2 cells incubated 60 min)	% Reduction compared to Control ([2]; Conc. 1 mg/mL) [%]	% Reduction compared to Control ([2]; Conc. 5 mg/mL) [%]	% Reduction compared to Control ([2]; Conc. 10 mg/mL) [%]	Residual Ratio/% of lutein esters ([3]; 300 mg lutein esters, Dosage of LA 3 mg, Content of LA 1.0%) [%]	Residual Ratio/% of lutein esters ([3]; Dosage of LA 15 mg, Content of LA 4.8%) [%]	Residual Ratio/% of lutein esters ([3]; Dosage of LA 30 mg, Content of LA 9.1%) [%]	Residual Ratio/% of lutein esters ([3]; Dosage of LA 60 mg, Content of LA 16.7%) [%]	Residual Ratio/% of lutein esters ([3]; Dosage of LA 150 mg, Content of LA 33.3%) [%]	Residual Ratio/% of lutein esters ([3]; Dosage of LA 300 mg, Content of LA 50.0%) [%]	Total LA in medium (after NaBH4 reduction) ([4]; 60 min)	Free LA in medium ([4]; 60 min, 37° C.) [mg/mL]	Free LA in medium ([4]; Initial) [mg/mL]	Total LA in medium (after NaBH4 reduction) ([4]; Initial)	stability under the test assay conditions ([4]; incubation medium, 37° C., 1 hour, recovery after reduction to DHLA)
O=C(O)CCCCC1CCSS1 (stereo not drawn) [LA, 1,2-dithiolane-3-pentanoic acid]	full protection	full protection	bld	bld	7.2	22.2	24.7	42.7	46.5	79.5	80.1	79.4	82.4	bld	0.74	0.89	bld	stable
[BH4-].[Na+] [Control, NaBH4]	–	–	–	–	22.7	100.0	100.0	–	–	–	–	–	–	–	–	–	–	–
